For 27 compounds, EC50 results are on record in patent publication US9718828B2 (MERCK SHARP & DOHME CORP., priority 2011, dated 2017).

Counter-ions that a name gives are not always drawn. Some results are limits rather than exact numbers.

Sequence of Btk enzyme (His-Btk) (Q06187 whole entry): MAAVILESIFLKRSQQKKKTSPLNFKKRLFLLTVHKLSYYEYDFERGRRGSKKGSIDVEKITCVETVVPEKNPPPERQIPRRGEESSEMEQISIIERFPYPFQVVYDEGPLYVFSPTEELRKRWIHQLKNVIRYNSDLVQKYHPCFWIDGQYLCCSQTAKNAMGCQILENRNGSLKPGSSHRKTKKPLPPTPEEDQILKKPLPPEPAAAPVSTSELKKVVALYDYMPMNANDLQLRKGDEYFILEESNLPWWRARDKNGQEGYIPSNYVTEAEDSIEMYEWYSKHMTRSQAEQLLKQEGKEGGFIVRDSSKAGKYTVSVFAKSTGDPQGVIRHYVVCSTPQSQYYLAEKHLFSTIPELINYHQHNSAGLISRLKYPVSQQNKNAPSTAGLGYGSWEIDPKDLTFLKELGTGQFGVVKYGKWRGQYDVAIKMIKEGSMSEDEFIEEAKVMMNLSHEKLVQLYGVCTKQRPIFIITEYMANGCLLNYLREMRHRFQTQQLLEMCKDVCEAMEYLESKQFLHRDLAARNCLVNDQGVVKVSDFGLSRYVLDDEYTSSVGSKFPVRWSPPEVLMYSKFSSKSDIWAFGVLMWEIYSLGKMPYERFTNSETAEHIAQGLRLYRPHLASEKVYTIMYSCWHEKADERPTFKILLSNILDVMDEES

One experiment addresses Btk enzyme (His-Btk) (Homo sapiens (Human), UniProt Q06187). Kind of experiment: Btk enzyme activity, IMAP fluorescence polarization assay (Assay Method A).
Settings: not given
For orientation: Fluorescence polarisation rises when a labelled molecule tumbles more slowly, as on binding a larger partner.
The term EC50 denotes the concentration that produces a half-maximal response. In the case of `COC(=O)c1cnc(N)c2c(-c3ccc(C(=O)Nc4cc(C(F)(F)F)ccn4)cc3)nc(C)n12` [Example 312, methyl 8-amino-3-methyl-1-(4-(4-(trifluoromethyl)pyridin-2-ylcarbamoyl)phenyl)imidazo[1,5-a]pyrazine-5-carboxylate], the EC50 was 10 to 100 nM.
As for `CCC(F)(F)C(=O)N1CCC[C@@H](c2nc(-c3ccc(C(=O)Nc4ccccn4)cc3)c3c(N)nccn23)C1` [Example 93, (R)-4-(8-amino-3-(1-(2,2-difluorobutanoyl)piperidin-3-yl)imidazo[1,5-a]pyrazin-1-yl)-N-(pyridin-2-yl)benzamide], the EC50 was 10 to 100 nM.
In the case of `Nc1nccn2c([C@@H]3CCCN(C(=O)C4CSC4)C3)nc(-c3ccc(C(=O)Nc4cc(C(F)(F)F)ccn4)cc3)c12` [Example 86, (R)-4-(8-amino-3-(1-(thietane-3-carbonyl)piperidin-3-yl)imidazo[1,5-a]pyrazin-1-yl)-N-(4-(trifluoromethyl)pyridin-2-yl)benzarnide], the EC50 is under 10 nM.
As for `CCN(CC)c1nc(-c2ccc(C(=O)Nc3cc(C(F)(F)F)ccn3)cc2)c2c(N)nccn12` [Example 216, 4-(8-amino-3-(diethylamino)imidazo[1,5-a]pyrazin-1-yl)-N-(4-(trifluoromethyl)pyridin-2-yl)benzamide], the EC50 was 10 to 100 nM.
`COc1cccc(-c2cnc(N)c3c(-c4ccc(C(=O)Nc5cc(C(F)(F)F)ccn5)cc4)nc([C@@H]4CCCN(C(=O)C5(C)COC5)C4)n23)c1` [Example 320, (R)-4-(8-amino-5-(3-methoxyphenyl)-3-(1-(3-methyloxetane-3-carbonyl)piperidin-3-yl)imidazo[1,5-a]pyrazin-1-yl)-N-(4-(trifluoromethyl)pyridin-2-yl)benzamide] returned a 50% effective concentration (EC50) of 10 to 100 nM.
Turning to `CC1(C(=O)N2CCC[C@@H](c3nc(-c4ccc(C(=O)Nc5cc(C(F)(F)F)ccn5)cc4)c4c(N)nccn34)C2)CCC1` [Example 70, (R)-4-(8-amino-3-(1-(1-methylcyclobutanecarbonyl)piperidin-3-yl)imidazo[1,5-a]pyrazin-1-yl)-N-(4-(trifluoromethyl)pyridin-2-yl)benzamide], the EC50 was under 10 nM.
For `Nc1nccn2c(C3CC4CCC3N4C(=O)C3CCCO3)nc(-c3ccc(C(=O)Nc4ccccn4)cc3)c12` (stereo not drawn) [Example 146, 4-(8-amino-3-(7-(tetrahydrofuran-2-carbonyl)-7-azabicyclo[2.2.1]heptan-2-yl)imidazo[1,5-a]pyrazin-1-yl)-N-(pyridin-2-yl)benzamide], the EC50 lay in the range of 10 to 100 nM.
In turn, `Nc1nccn2c([C@@H]3CCCN(C(=O)C45CC(C4)C5)C3)nc(-c3ccc(C(=O)Nc4cc(C(F)(F)F)ccn4)cc3)c12` [Example 90, (R)-4-(8-amino-3-(1-(bicyclo[1.1.1]pentane-1-carbonyl)piperidin-3-yl)imidazo[1,5-a]pyrazin-1-yl)-N-(4-(trifluoromethyl)pyridin-2-yl)benzamide] gave an EC50 of under 10 nM.
In turn, `CCOC(=O)N1CCCC(c2cc(-c3ccc(C(=O)Nc4cc(C(F)(F)F)ccn4)cc3)c3c(N)ncnn23)C1` (stereo not drawn) [Example 251, ethyl 3-(4-amino-5-(4-(4-(trifluoromethyl)pyridin-2-ylcarbamoyl)phenyl)pyrrolo[1,2-f][1,2,4]triazin-7-yl)piperidine-1-carboxylate] came in with an EC50 of under 10 nM.
Turning to `COCCC(=O)N1CCC[C@@H](c2nc(-c3ccc(C(=O)Nc4ccccn4)c(F)c3)c3c(N)nccn23)C1` [Example 282, (R)-4-(8-amino-3-(1-(3-methoxypropanoyl)piperidin-3-yl)imidazo[1,5-a]pyrazin-1-yl)-2-fluoro-N-(pyridin-2-yl)benzamide, TFA salt], the EC50 is under 10 nM.
Take `Nc1nccn2c([C@@H]3CCCN(C(=O)C4CC4)C3)nc(-c3ccc(C(=O)Nc4cc(C(F)(F)F)ccn4)cc3)c12` [Example 103, (R)-4-(8-amino-3-(1-(cyclopropanecarbonyl)piperidin-3-yl)imidazo[1,5-a]pyrazin-1-(trifluoromethyl)pyridin-2-yl)benzamide]: the EC50 was under 10 nM.
In the case of `COCCCNC(=O)c1cnc(N)c2c(-c3ccc(C(=O)Nc4cc(C(F)(F)F)ccn4)cc3)nc(C)n12` [Example 291, 8-amino-N-(3-methoxypropyl)-3-methyl-1-(4-(4-(trifluoromethyl)pyridin-2-ylcarbamoyl)phenyl)imidazo[1,5-a]pyrazine-5-carboxamide], the EC50 was 100 to 1000 nM.
Same read-out and setting: the value for `Nc1nccn2c([C@@H]3CCCN(CCC(F)(F)F)C3)nc(-c3ccc(C(=O)Nc4ccccn4)cc3)c12` [Example 136, (R)-4-(8-amino-3-(1-(3,3,3-trifluoropropyl)piperidin-3-yl)imidazo[1,5-a]pyrazin-1-yl)-N-(pyridin-2-yl)benzamide TFA salt] was 10 to 100 nM.
Turning to `CSCCC(=O)N1C[C@H](c2nc(-c3ccc(C(=O)Nc4cc(C(F)(F)F)ccn4)cc3)c3c(N)nccn23)CC[C@H]1C` (relative stereo) [Example 187, 4-(8-amino-3-((trans)-6-methyl-1-(3-(methylthio)propanoyl)piperidin-3-yl)imidazo[1,5-a]pyrazin-1-yl)-N-(4-(trifluoromethyl)pyridin-2-yl)benzamide, TFA salt], the half-maximal effective concentration (EC50) was in the range of 10 to 100 nM.
The compound `Cc1nc(-c2ccc(C(=O)Nc3cc(C(F)(F)F)ccn3)cc2)c2c(N)ncc(C(=O)NC3CCN(C)CC3)n12` [Example 295, 8-amino-3-methyl-N-(1-methylpiperidin-4-yl)-1-(4-(4-(trifluoromethyl)pyridin-2-ylcarbamoyl)phenyl)imidazo[1,5-a]pyrazine-5-carboxamide] displayed a concentration giving a half-maximal response (EC50) of 100 to 1000 nM.
The compound `Nc1nccn2c([C@@H]3CCCN(C(=O)C4CCOC4)C3)nc(-c3ccc(C(=O)Nc4ccccn4)cc3)c12` (stereo partly drawn) [Example 56, 4-(8-amino-3-((3R)-1-(tetrahydrofuran-3-carbonyl)piperidin-3-yl)imidazo[1,5-a]pyrazin-1-yl)-N-(pyridin-2-yl)benzamide, TFA salt] yielded an EC50 of 10 to 100 nM.
In turn, `CCC(=O)N1CCC[C@@H](c2nc(-c3ccc(C(=O)Nc4cc(C5CC5)ccn4)cc3)c3c(N)nccn23)C1` [Example 60, (R)-4-(8-amino-3-(1-propionylpiperidin-3-yl)imidazo[1,5-a]pyrazin-1-yl)-N-(4-cyclopropylpyridin-2-yl)benzamide] yielded an EC50 of under 10 nM.

Still in this experiment, the particulars now being: read-out: EC50 Btk activity values - Assay Method A; IMAP-FP, 60 min pre-incubation, 5 μM ATP; class 100-1000 is given as ≧100 nM-<1 μM.
As for `CCNC(=O)N1C[C@H](c2nc(-c3ccc(C(=O)Nc4cc(C(F)(F)F)ccn4)cc3)c3c(N)nccn23)CC[C@H]1C` (relative stereo) [Example 186, (trans)-5-(8-amino-1-(4-(4-(trifluoromethyl)pyridin-2-ylcarbamoyl)phenyl)imidazo [1,5-a]pyrazin-3-yl)-N-ethyl-2-methylpiperidine-1-carboxamide, TFA salt], the half-maximal effective concentration (EC50) is under 10 nM.
Same read-out and setting: the same measure for `CCC(=O)N1C[C@H](c2nc(-c3ccc(C(=O)Nc4ccccn4)cc3)c3c(N)nccn23)CC[C@@H]1C` (relative stereo) [Example 207, 4-(8-amino-3-((cis)-6-methyl-1-propionylpiperidin-3-yl)imidazo[1,5-a]pyrazin-1-yl)-N-(pyridin-2-yl)benzamide, TFA salt]: under 10 nM; for `CC1(C(=O)N2CCOC(c3nc(-c4ccc(C(=O)Nc5cc(C(F)(F)F)ccn5)cc4)c4c(N)ncc(Cl)n34)C2)COC1` (stereo not drawn) [Example 315, 4-(8-amino-5-chloro-3-(4-(3-methyloxetane-3-carbonyl)morpholin-2-yl)imidazo[1,5-a]pyrazin-1-yl)-N-(4-(trifluoromethyl)pyridin-2-yl)benzamide]: under 10 nM.
Consider `CC1CCc2nc(NC(=O)c3ccc(-c4nc([C@H]5CC[C@H](O)CC5)n5ccnc(N)c45)cc3)sc2C1` (stereo partly drawn) [Example 14, 4-(8-amino-3-((trans)-4-hydroxycyclohexyl)imidazo[1,5-a]pyrazin-1-yl)-N-(6-methyl-4,5,6,7-tetrahydrobenzo[d]thiazol-2-yl)benzamide], for which the concentration giving a half-maximal response (EC50) was under 10 nM.
As to `CC1(C(=O)N2CCC[C@@H](c3nc(-c4ccc(C(=O)Nc5cc(C(F)(F)F)ccn5)cc4)c4c(N)ncc(CCc5ccccc5)n34)C2)COC1` [Example 319, (R)-4-(8-amino-3-(1-(3-methyloxetane-3-carbonyl)piperidin-3-yl)-5-phenethylimidazo[1,5-a]pyrazin-1-yl)-N-(4-(trifluoromethyl)pyridin-2-yl)benzamide], the EC50 is under 10 nM.
In the case of `CC1(C(=O)N2CCC[C@@H](n3nc(-c4ccc(C(=O)Nc5cc(C(F)(F)F)ccn5)cc4)c4c(N)ncnc43)C2)COC1` [Example 267, (R)-4-(4-amino-1-(1-(3-methyloxetane-3-carbonyl)piperidin-3-yl)-1H-pyrazolo[3,4-d]pyrimidin-3-yl)-N-(4-(trifluoromethyl)pyridin-2-yl)benzamide], the EC50 is under 10 nM.
With `Nc1nccn2c([C@H]3[C@@H]4COC[C@@H]43)nc(-c3ccc(C(=O)Nc4cc(C(F)(F)F)ccn4)cc3)c12` [Example 31, 4-(8-amino-34(1R,5S,6S)-3-oxabicyclo[3.1.0]hexan-6-yl)imidazo[1,5-a]pyrazin-1-yl)-N-(4-(trifluoromethyl)pyridin-2-yl)benzamide, TFA salt], the EC50 is under 10 nM.
Take `CCNC(=O)C1CCCN(c2nc(-c3ccc(C(=O)Nc4cc(C(F)(F)F)ccn4)cc3)c3c(N)nccn23)C1` (stereo not drawn) [Example 236, 1-(8-amino-1-(4-(4-(trifluoromethyl)pyridin-2-ylcarbamoyl)phenyl)imidazo[1,5-a]pyrazin-3-yl)-N-ethylpiperidine-3-carboxamide, TFA salt]: the EC50 is under 10 nM.
Turning to `CC(C)(F)C(=O)N1CCOC(c2nc(-c3ccc(C(=O)Nc4cc(C(F)(F)F)ccn4)cc3)c3c(N)nccn23)C1` (stereo not drawn) [Example 174, 4-(8-amino-3-(4-(2-fluoro-2-methylpropanoyl)morpholin-2-yl)imidazo[1,5-a]pyrazin-1-yl)-N-(4-(trifluoromethyl)pyridin-2-yl)benzamide], the EC50 was under 10 nM.
For the compound `CCNC(=O)N1CCC[C@@H](n2nc(-c3ccc(C(=O)Nc4cc(C(F)(F)F)ccn4)cc3)c3c(N)ncnc32)C1` [Example 268, (R)-3-(4-amino-3-(4-(4-(trifluoromethyl)pyridin-2-ylcarbamoyl)phenyl)-1H-pyrazolo[3,4-d]pyrimidin-1-yl)-N-ethylpiperidine-1-carboxamide], the EC50 is under 10 nM.
